The record followed here is BindingDB's records for doi:10.1016/s0960-894x(99)00197-3 (The R. W. Johnson Pharmaceutical Research Institute, 1999).

Where a SMILES comes first, the peptide text is derived from it. [ ]: non-standard residue; d: D form. The star is where a group is joined. Cha = N[C@@H](CC1CCCCC1)C(=O)O; Nicotinoyl = O=C(c1cccnc1)*; 3Abz = Nc1cccc(C(=O)O)c1

The first assay is described as follows: Activation of human platelet aggregation (gel-filtered platelets) induced by alpha thrombin.
As a reminder, the EC50 is the concentration that produces a half-maximal response. `N=C(N)NCCC[C@H](NC(=O)[C@H](Cc1ccccc1)NC(=O)c1ccc2nc[nH]c2c1)C(=O)N[C@@H](Cc1ccccc1)C(N)=O` [1H-Benzoimidazole-5-carboxylic acid {(S)-1-[(S)-1-((S)-1-carbamoyl-2-phenyl-ethylcarbamoyl)-4-guanidino-butylcarbamoyl]-2-phenyl-ethyl}-amide] yielded an EC50 of 4900 nM. On the same count and under the same terms, the result for `N=C(N)NCCC[C@H](NC(=O)[C@H](CC1CCCCC1)NC(=O)c1nccnc1N)C(=O)N[C@@H](Cc1ccccc1)C(N)=O` [3-Amino-pyrazine-2-carboxylic acid {(S)-1-[(S)-1-((S)-1-carbamoyl-2-phenyl-ethylcarbamoyl)-4-guanidino-butylcarbamoyl]-2-cyclohexyl-ethyl}-amide] reads 4200 nM; that for `N=C(N)NCCC[C@H](NC(=O)[C@H](CC1CCCCC1)NC(=O)c1cc(=O)c2ccccc2o1)C(=O)N[C@@H](Cc1ccccc1)C(N)=O` [4-Oxo-4H-chromene-2-carboxylic acid {(S)-1-[(S)-1-((S)-1-carbamoyl-2-phenyl-ethylcarbamoyl)-4-guanidino-butylcarbamoyl]-2-cyclohexyl-ethyl}-amide], 510 nM. `N=C(N)NCCC[C@H](NC(=O)[C@H](CC1CCCCC1)NC(=O)c1nnc(NC(=O)C=Cc2cccc3ccccc23)[nH]1)C(=O)N[C@@H](Cc1ccccc1)C(N)=O` [5-((E)-3-Naphthalen-1-yl-acryloylamino)-1H-[1,2,4]triazole-3-carboxylic acid {(S)-1-[(S)-1-((S)-1-carbamoyl-2-phenyl-ethylcarbamoyl)-4-guanidino-butylcarbamoyl]-2-cyclohexyl-ethyl}-amide] registered an EC50 of 1000 nM.

Another assay is described as follows: Inhibition of [3H]S-(p-F-Phe)-Har-L-Har-KY-NH2 binding to Thrombin receptor 1 (PAR-1) on membranes from CHRF cells.
In the case of `N=C(N)NCCC[C@H](NC(=O)[C@H](CC1CCCCC1)NC(=O)c1cccnc1N)C(=O)N[C@@H](Cc1ccccc1)C(N)=O` [2-Amino-N-{(S)-1-[(S)-1-((S)-1-carbamoyl-2-phenyl-ethylcarbamoyl)-4-guanidino-butylcarbamoyl]-2-cyclohexyl-ethyl}-nicotinamide], a half-maximal response (EC50) required 8 µM. `N=C(N)NCCC[C@H](NC(=O)[C@H](CC1CCCCC1)NC(=O)c1cccc(N)c1)C(=O)N[C@@H](Cc1ccccc1)C(N)=O` [3-Amino-N-{(S)-1-[(S)-1-((S)-1-carbamoyl-2-phenyl-ethylcarbamoyl)-4-guanidino-butylcarbamoyl]-2-cyclohexyl-ethyl}-benzamide] (H-[3Abz][Cha]RF-NH2) came in with an EC50 of 2.9 µM.

As for `N=C(N)NCCC[C@H](NC(=O)[C@H](CC1CCCCC1)NC(=O)c1nnc(NC(=O)C=Cc2c[nH]c3ccccc23)[nH]1)C(=O)N[C@@H](Cc1ccccc1)C(N)=O` [5-((E)-3-1H-Indol-3-yl-acryloylamino)-1H-[1,2,4]triazole-3-carboxylic acid {(S)-1-[(S)-1-((S)-1-carbamoyl-2-phenyl-ethylcarbamoyl)-4-guanidino-butylcarbamoyl]-2-cyclohexyl-ethyl}-amide], the EC50 was 14 µM. `N=C(N)NCCC[C@H](NC(=O)[C@H](CC1CCCCC1)NC(=O)c1nnc(NC(=O)C=Cc2cccs2)[nH]1)C(=O)N[C@@H](Cc1ccccc1)C(N)=O` [5-((E)-3-Thiophen-2-yl-acryloylamino)-1H-[1,2,4]triazole-3-carboxylic acid {(S)-1-[(S)-1-((S)-1-carbamoyl-2-phenyl-ethylcarbamoyl)-4-guanidino-butylcarbamoyl]-2-cyclohexyl-ethyl}-amide] had an EC50 of 2.9 µM. Consider `N=C(N)NCCC[C@H](NC(=O)[C@H](CC1CCCCC1)NC(=O)c1nnc(N)[nH]1)C(=O)N[C@@H](Cc1cccs1)C(N)=O` [5-Amino-1H-[1,2,4]triazole-3-carboxylic acid {(S)-1-[(S)-1-((S)-1-carbamoyl-2-thiophen-2-yl-ethylcarbamoyl)-4-guanidino-butylcarbamoyl]-2-cyclohexyl-ethyl}-amide], for which the EC50 is 10.5 µM. In the case of `N=C(N)NCCC[C@H](NC(=O)[C@H](CC1CCCCC1)NC(=O)c1nnc(NC(=O)C=Cc2ccccc2Cl)[nH]1)C(=O)N[C@@H](Cc1ccccc1)C(N)=O` [5-[(E)-3-(2-Chloro-phenyl)-acryloylamino]-1H-[1,2,4]triazole-3-carboxylic acid {(S)-1-[(S)-1-((S)-1-carbamoyl-2-phenyl-ethylcarbamoyl)-4-guanidino-butylcarbamoyl]-2-cyclohexyl-ethyl}-amide], the EC50 was determined as 1.1 µM. `N=C(N)NCCC[C@H](NC(=O)[C@H](CC1CCCCC1)NC(=O)c1nnc(NC(=O)C=Cc2ccc(Cl)cc2)[nH]1)C(=O)N[C@@H](Cc1ccccc1)C(N)=O` [5-[(E)-3-(4-Chloro-phenyl)-acryloylamino]-1H-[1,2,4]triazole-3-carboxylic acid {(S)-1-[(S)-1-((S)-1-carbamoyl-2-phenyl-ethylcarbamoyl)-4-guanidino-butylcarbamoyl]-2-cyclohexyl-ethyl}-amide]: it took 55 µM to reach a half-maximal effect (EC50). Take `COc1ccc(C=CC(=O)Nc2nnc(C(=O)N[C@@H](CC3CCCCC3)C(=O)N[C@@H](CCCNC(=N)N)C(=O)N[C@@H](Cc3ccccc3)C(N)=O)[nH]2)cc1` [5-[(E)-3-(4-Methoxy-phenyl)-acryloylamino]-1H-[1,2,4]triazole-3-carboxylic acid {(S)-1-[(S)-1-((S)-1-carbamoyl-2-phenyl-ethylcarbamoyl)-4-guanidino-butylcarbamoyl]-2-cyclohexyl-ethyl}-amide]: the EC50 came out at 5.6 µM. In turn, `N=C(N)NCCC[C@H](NC(=O)[C@H](CC1CCCCC1)NC(=O)c1nnc(NC(=O)C=Cc2ccc(C(F)(F)F)cc2)[nH]1)C(=O)N[C@@H](Cc1ccccc1)C(N)=O` [5-[(E)-3-(4-Trifluoromethyl-phenyl)-acryloylamino]-1H-[1,2,4]triazole-3-carboxylic acid {(S)-1-[(S)-1-((S)-1-carbamoyl-2-phenyl-ethylcarbamoyl)-4-guanidino-butylcarbamoyl]-2-cyclohexyl-ethyl}-amide] displayed an EC50 of 5 µM. `N=C(N)NCCC[C@H](NC(=O)[C@H](CC1CCCCC1)NC(=O)c1ccc(N)nc1)C(=O)N[C@@H](Cc1ccccc1)C(N)=O` [6-Amino-N-{(S)-1-[(S)-1-((S)-1-carbamoyl-2-phenyl-ethylcarbamoyl)-4-guanidino-butylcarbamoyl]-2-cyclohexyl-ethyl}-nicotinamide]: a half-maximal effect (EC50) was put at 1.2 µM.

Regarding `CC(C)C[C@H](NC(=O)[C@H](CC(C)C)NC(=O)[C@H](Cc1ccccc1)NC(=O)[C@@H](N)CO)C(=O)N[C@@H](CCCNC(=N)N)C(=O)N[C@@H](CC(N)=O)C(N)=O` [(S)-2-[(S)-2-((S)-2-{(S)-2-[(S)-2-((S)-2-Amino-3-hydroxy-propionylamino)-3-phenyl-propionylamino]-4-methyl-pentanoylamino}-4-methyl-pentanoylamino)-5-guanidino-pentanoylamino]-succinamide], a half-maximal effect (EC50) was put at 0.28 µM.

Consider `N=C(N)NCCC[C@H](NC(=O)[C@H](CC1CCCCC1)NC(=O)C=Cc1cccnc1)C(=O)N[C@@H](Cc1ccccc1)C(N)=O` [(S)-2-[(S)-3-Cyclohexyl-2-((E)-3-pyridin-3-yl-acryloylamino)-propionylamino]-5-guanidino-pentanoic acid ((S)-1-carbamoyl-2-phenyl-ethyl)-amide], for which the concentration for a half-maximal effect (EC50) came out at 2.6 µM. In the case of `N=C(N)NCCC[C@H](NC(=O)[C@H](CC1CCCCC1)NC(=O)c1cc2ccccc2s1)C(=O)N[C@@H](Cc1ccccc1)C(N)=O` [Benzo[b]thiophene-2-carboxylic acid {(S)-1-[(S)-1-((S)-1-carbamoyl-2-phenyl-ethylcarbamoyl)-4-guanidino-butylcarbamoyl]-2-cyclohexyl-ethyl}-amide], the EC50 turned out to be 8.3 µM.

In turn, `N=C(N)NCCC[C@H](NC(=O)[C@H](CC1CCCCC1)NC(=O)c1cc2ccccc2o1)C(=O)N[C@@H](Cc1ccccc1)C(N)=O` [Benzofuran-2-carboxylic acid {(S)-1-[(S)-1-((S)-1-carbamoyl-2-phenyl-ethylcarbamoyl)-4-guanidino-butylcarbamoyl]-2-cyclohexyl-ethyl}-amide] yielded a half-maximal effective concentration (EC50) of 12.5 µM. Compound `N=C(N)NCCC[C@H](NC(=O)[C@H](CC1CCCCC1)NC(=O)c1ccc2c(c1)-c1ccccc1-2)C(=O)N[C@@H](Cc1ccccc1)C(N)=O` [Biphenylene-2-carboxylic acid {(S)-1-[(S)-1-((S)-1-carbamoyl-2-phenyl-ethylcarbamoyl)-4-guanidino-butylcarbamoyl]-2-cyclohexyl-ethyl}-amide] registered an EC50 of 1.2 µM. For the compound `N=C(N)NCCC[C@H](NC(=O)[C@H](CC1CCCCC1)NC(=O)c1ccc(Cl)nc1)C(=O)N[C@@H](Cc1ccccc1)C(N)=O` [N-{(S)-1-[(S)-1-((S)-1-Carbamoyl-2-phenyl-ethylcarbamoyl)-4-guanidino-butylcarbamoyl]-2-cyclohexyl-ethyl}-6-chloro-nicotinamide], the response was half-maximal at 4.6 µM (EC50).

Compound `N=C(N)NCCC[C@H](NC(=O)[C@H](CC1CCCCC1)NC(=O)c1cccnc1)C(=O)N[C@@H](Cc1ccccc1)C(N)=O` [N-{(S)-1-[(S)-1-((S)-1-Carbamoyl-2-phenyl-ethylcarbamoyl)-4-guanidino-butylcarbamoyl]-2-cyclohexyl-ethyl}-nicotinamide] (Nicotinoyl-[Cha]-Arg-Phe-NH2) showed an EC50 of 2 µM. Take `N=C(N)NCCC[C@H](NC(=O)[C@H](CC1CCCCC1)NC(=O)c1ccccn1)C(=O)N[C@@H](Cc1ccccc1)C(N)=O` [Pyridine-2-carboxylic acid {(S)-1-[(S)-1-((S)-1-carbamoyl-2-phenyl-ethylcarbamoyl)-4-guanidino-butylcarbamoyl]-2-cyclohexyl-ethyl}-amide]: the EC50 was 14 µM. Same read-out and setting: the result for `N=C(N)NCCC[C@H](NC(=O)[C@H](CC1CCCCC1)NC(=O)c1cnc2ccccc2n1)C(=O)N[C@@H](Cc1ccccc1)C(N)=O` [Quinoxaline-2-carboxylic acid {(S)-1-[(S)-1-((S)-1-carbamoyl-2-phenyl-ethylcarbamoyl)-4-guanidino-butylcarbamoyl]-2-cyclohexyl-ethyl}-amide] reads 1 µM. Regarding `N=C(N)NCCC[C@H](NC(=O)[C@H](CC1CCCCC1)NC(=O)c1csnn1)C(=O)N[C@@H](Cc1ccccc1)C(N)=O` [[1,2,3]Thiadiazole-4-carboxylic acid {(S)-1-[(S)-1-((S)-1-carbamoyl-2-phenyl-ethylcarbamoyl)-4-guanidino-butylcarbamoyl]-2-cyclohexyl-ethyl}-amide], the EC50 was determined as 1.3 µM.
